Measurements as given in patent US11452725B2, “Chiral diaryl macrocycles and uses thereof” (TURNING POINT THERAPEUTICS, INC., priority 2015, dated 2022).

Key:
[1] = biological target: T1, HCK (Homo sapiens, UniProt P08631); assay: Biochemical kinase assay (Reaction Biology); settings: 10 μM ATP
T1 construct: purchased Reaction Biology Corporation (contract assay)
Description: (§2) Specific kinase/substrate pairs along with required cofactors were prepared in reaction buffer; 20 mM Hepes pH 7.5, 10 mM MgCl2, 1 mM EGTA, 0.02% Brij35, 0.02 mg/ml BSA, 0.1 mM Na3VO4, 2 mM DTT, 1% DMSO (for specific details of individual kinase reaction components see Supplementary Table 2). Compounds were delivered into the reaction, followed ˜20 minutes later by addition of a mixture of ATP (Sigma, St. Louis Mo.) and ^33P ATP (Perkin Elmer, Waltham Mass.) to a final concentration of 10 μM. Reactions were carried out at room temperature for 120 min, followed by spotting of the reactions onto P81 ion exchange filter paper (Whatman Inc., Piscataway, N.J.). […] IC50 values and curve fits were obtained using Prism (GraphPad Software).

[2] = biological target: T2, LTK (Homo sapiens, UniProt P29376); assay: Biochemical kinase assay (Reaction Biology); settings: 10 μM ATP
T2 construct: purchased Reaction Biology Corporation (contract assay)
T2 sequence (P29376 17-864): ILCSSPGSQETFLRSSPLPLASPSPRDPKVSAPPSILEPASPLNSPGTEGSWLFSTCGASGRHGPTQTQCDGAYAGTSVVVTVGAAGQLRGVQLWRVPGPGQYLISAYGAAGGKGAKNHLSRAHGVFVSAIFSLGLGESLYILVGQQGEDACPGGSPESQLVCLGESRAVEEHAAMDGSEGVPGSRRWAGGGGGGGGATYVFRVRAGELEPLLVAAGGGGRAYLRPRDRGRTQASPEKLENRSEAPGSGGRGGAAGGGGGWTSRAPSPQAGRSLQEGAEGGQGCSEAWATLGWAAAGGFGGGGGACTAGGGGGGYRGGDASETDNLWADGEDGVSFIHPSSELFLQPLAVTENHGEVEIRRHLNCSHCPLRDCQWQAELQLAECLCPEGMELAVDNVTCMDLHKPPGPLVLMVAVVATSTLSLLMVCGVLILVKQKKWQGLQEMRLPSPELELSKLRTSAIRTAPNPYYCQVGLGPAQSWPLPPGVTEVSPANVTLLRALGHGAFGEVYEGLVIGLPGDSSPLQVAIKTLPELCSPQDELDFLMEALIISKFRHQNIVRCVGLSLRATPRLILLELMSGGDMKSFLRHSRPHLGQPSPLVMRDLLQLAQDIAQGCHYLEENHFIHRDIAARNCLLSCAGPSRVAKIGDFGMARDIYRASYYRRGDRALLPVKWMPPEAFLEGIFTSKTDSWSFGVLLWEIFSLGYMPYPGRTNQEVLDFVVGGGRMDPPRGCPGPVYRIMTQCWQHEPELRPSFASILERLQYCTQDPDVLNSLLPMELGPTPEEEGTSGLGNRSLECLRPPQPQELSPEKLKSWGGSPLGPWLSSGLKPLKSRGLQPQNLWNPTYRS
Description: as §2

[3] = biological target: T3, GRK7 (Homo sapiens, UniProt Q8WTQ7); assay: Biochemical kinase assay (Reaction Biology); settings: 10 μM ATP
T3 construct: purchased Reaction Biology Corporation (contract assay)
T3 sequence (Q8WTQ7 whole entry): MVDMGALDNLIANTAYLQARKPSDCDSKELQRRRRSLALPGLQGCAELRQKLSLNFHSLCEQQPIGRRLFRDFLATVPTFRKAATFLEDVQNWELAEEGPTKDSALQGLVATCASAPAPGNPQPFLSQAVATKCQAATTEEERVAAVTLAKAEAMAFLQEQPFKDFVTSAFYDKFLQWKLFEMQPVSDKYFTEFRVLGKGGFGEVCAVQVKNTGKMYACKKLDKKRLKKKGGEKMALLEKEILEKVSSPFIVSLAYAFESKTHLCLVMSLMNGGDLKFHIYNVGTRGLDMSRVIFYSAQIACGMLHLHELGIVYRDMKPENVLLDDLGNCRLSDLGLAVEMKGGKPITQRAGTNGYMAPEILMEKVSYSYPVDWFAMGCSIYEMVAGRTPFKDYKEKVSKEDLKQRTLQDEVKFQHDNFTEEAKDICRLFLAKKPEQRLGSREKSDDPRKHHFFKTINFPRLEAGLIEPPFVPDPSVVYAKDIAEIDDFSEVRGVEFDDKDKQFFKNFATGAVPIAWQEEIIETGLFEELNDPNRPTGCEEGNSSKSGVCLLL
Description: as §2

[4] = biological target: T4, RET (Homo sapiens, UniProt P07949); assay: Biochemical kinase assay (Reaction Biology); settings: 10 μM ATP
T4 construct: purchased Reaction Biology Corporation (contract assay)
T4 sequence (P07949 29-1114): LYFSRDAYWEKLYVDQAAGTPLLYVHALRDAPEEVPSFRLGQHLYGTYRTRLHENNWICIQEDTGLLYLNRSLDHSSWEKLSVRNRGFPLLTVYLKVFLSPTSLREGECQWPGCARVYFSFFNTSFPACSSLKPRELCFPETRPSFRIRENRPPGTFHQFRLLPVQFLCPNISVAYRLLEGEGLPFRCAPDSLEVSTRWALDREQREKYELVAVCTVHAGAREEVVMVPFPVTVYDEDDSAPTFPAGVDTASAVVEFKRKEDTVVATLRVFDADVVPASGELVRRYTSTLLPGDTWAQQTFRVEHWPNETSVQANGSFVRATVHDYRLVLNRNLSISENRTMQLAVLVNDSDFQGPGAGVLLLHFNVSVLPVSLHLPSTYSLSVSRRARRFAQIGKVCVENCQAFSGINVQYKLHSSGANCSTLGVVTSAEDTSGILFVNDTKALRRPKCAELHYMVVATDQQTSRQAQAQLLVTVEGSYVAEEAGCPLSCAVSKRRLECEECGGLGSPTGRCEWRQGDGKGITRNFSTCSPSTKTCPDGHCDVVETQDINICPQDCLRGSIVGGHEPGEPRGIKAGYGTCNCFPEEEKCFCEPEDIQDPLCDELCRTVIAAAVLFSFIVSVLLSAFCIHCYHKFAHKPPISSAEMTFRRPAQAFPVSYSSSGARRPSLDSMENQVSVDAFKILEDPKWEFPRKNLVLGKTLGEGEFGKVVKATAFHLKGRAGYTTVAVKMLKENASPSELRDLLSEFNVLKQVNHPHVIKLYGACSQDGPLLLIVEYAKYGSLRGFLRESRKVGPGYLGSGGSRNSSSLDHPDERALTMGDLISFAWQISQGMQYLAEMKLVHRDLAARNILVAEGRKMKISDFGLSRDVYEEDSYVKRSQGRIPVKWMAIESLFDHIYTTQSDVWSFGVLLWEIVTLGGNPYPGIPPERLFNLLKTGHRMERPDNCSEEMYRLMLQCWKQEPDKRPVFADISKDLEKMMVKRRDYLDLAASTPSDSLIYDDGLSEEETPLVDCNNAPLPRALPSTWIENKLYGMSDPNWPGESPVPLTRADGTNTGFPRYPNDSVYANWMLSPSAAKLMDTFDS
Description: as §2

[5] = biological target: T5, EPHA8 (Homo sapiens, UniProt P29322); assay: Biochemical kinase assay (Reaction Biology); settings: 10 μM ATP
T5 construct: purchased Reaction Biology Corporation (contract assay)
T5 sequence (P29322 28-1005): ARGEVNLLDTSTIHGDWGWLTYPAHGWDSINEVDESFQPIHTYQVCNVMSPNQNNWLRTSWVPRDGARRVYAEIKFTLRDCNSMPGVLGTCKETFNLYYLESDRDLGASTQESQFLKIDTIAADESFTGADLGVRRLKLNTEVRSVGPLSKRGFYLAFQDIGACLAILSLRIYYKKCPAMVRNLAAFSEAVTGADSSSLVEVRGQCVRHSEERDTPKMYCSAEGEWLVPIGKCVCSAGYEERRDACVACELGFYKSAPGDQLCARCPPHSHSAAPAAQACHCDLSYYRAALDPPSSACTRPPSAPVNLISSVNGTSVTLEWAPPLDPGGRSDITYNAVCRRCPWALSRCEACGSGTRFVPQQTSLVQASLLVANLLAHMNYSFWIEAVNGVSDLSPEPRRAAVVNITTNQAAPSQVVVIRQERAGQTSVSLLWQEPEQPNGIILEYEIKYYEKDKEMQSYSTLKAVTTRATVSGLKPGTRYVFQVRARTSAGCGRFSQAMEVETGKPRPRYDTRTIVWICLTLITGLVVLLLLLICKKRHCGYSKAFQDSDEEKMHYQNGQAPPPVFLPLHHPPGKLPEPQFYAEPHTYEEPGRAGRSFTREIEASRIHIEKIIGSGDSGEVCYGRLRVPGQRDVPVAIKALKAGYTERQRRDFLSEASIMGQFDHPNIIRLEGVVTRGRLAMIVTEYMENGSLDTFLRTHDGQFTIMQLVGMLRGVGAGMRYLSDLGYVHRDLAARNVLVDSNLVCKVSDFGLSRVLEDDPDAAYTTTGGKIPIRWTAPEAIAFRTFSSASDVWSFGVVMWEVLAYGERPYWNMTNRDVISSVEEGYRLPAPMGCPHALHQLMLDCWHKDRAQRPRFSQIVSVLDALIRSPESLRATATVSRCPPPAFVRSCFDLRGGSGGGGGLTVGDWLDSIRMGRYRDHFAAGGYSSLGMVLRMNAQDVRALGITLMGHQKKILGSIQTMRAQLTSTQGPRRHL
Description: as §2

[6] = tested on: NCI-H2228 cell line; assay: Cell proliferation assay (CellTiter-Glo); format: cell-based; settings: Homo sapiens, 72 hours, EML4-ALK fusion gene
Description: Two thousand cells per well were seeded in 384 well white plate for 24 hrs, and then treated with compounds for 72 hours (37° C., 5% CO2). Cell proliferation was measured using CellTiter-Glo luciferase-based ATP detection assay (Promega) following the manufactures's protocol. IC50 determinations were performed using GraphPad Prism software (GraphPad, Inc., San Diego, Calif.).

[7] = tested on: Ba/F3 EML4-ALK wild type cell line; assay: Cell proliferation assay (CellTiter-Glo); format: cell-based; settings: Mus musculus, 72 hours
[8] = tested on: Ba/F3 EML4-ALK L1152P cell line; assay: Cell proliferation assay (CellTiter-Glo); format: cell-based; settings: Mus musculus, 72 hours
[9] = tested on: Ba/F3 EML4-ALK F1174C cell line; assay: Cell proliferation assay (CellTiter-Glo); format: cell-based; settings: Mus musculus, 72 hours
[10] = tested on: Ba/F3 EML4-ALK C1156Y cell line; assay: Cell proliferation assay (CellTiter-Glo); format: cell-based; settings: Mus musculus, 72 hours
[11] = tested on: Ba/F3 TPR-ALK L1196M cell line; assay: Cell proliferation assay at Advanced Cellular Dynamics (CellTiter-Glo); format: cell-based; settings: Mus musculus, BaF3, 48 hours
[12] = tested on: Ba/F3 TEL-TRKB (ETV6-TRKB) G639R cell line; assay: Cell proliferation assay (CellTiter-Glo); format: cell-based; settings: Mus musculus, BaF3; 72 hours
[13] = biological target: FAK (Homo sapiens, UniProt Q05397); assay: Immunoblotting cellular kinase phosphorylation assay, NCI-H2228 cells; format: cell-based; settings: 4 hours treatment; read-out: FAK phosphorylation of NCI-H2228 cell line IC50
FAK, sequence (Q05397 whole entry, the tested form may be a part): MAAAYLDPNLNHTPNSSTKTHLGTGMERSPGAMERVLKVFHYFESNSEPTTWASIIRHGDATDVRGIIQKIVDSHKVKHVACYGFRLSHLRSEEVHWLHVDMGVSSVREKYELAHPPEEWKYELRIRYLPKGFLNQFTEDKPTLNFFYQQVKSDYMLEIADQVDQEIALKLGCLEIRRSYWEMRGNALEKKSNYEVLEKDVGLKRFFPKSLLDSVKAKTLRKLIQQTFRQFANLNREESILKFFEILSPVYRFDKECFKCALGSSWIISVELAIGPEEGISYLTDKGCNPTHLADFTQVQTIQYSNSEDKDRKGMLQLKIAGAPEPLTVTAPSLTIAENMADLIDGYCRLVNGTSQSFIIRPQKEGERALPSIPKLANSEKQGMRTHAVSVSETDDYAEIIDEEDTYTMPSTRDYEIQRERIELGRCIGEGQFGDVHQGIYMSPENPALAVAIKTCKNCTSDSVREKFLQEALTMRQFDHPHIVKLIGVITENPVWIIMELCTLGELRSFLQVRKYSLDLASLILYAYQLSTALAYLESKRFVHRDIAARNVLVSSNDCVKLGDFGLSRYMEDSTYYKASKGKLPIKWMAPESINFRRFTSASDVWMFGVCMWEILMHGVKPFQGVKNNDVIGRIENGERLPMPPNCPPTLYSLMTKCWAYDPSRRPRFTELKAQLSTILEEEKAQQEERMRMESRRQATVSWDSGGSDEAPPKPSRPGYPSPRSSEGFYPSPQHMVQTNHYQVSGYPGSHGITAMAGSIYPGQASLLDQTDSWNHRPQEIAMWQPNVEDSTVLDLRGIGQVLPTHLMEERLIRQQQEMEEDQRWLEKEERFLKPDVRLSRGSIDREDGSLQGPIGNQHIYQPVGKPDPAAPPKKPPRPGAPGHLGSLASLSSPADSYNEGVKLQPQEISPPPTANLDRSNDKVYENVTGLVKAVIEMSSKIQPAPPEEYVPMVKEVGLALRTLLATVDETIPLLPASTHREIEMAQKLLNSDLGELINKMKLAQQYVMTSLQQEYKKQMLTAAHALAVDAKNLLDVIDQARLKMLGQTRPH
Description: (§1) NSCLC cell line H2228 (harboring endogenous EML4-ALK fusion gene) was cultured in RPMI medium supplemented with 10% fetal bovine serum and 100 U/mL of penicillin/streptomycin. Ba/F3 and NIH3T3 cells stably expressing ROS1, or TRKA, or TRKB, or TRKC (WT or mutant) were cultured as mentioned above. […] Cells were collected after treatment and lysed in RIPA buffer (50 mM Tris, pH 7.4, 150 mM NaCl, 1% NP-40, 0.5% Deoxycholate, 0.1% SDS) supplemented with 10 mM EDTA, 1× Halt protease and phosphatase inhibitors (Thermo Scientific). Protein lysates (approximately 20 μg) was resolved on 4-12% Bolt Bis-Tris precasted gels with MES running buffer (Life Technologies), transferred to nitrocellulose membranes using Trans-Blot Turbo Transfer System (Bio-Rad) and detected with antibodies targeting phosphorylated phosphorylated ROS1 and total ROS1 (Cell Signaling Technology), phosphorylated TRK A/B (Cell Signaling Technology), total TRKA antibody (Santa Cruz Biotechnology), phosphorylated SRC Y416 (Cell Signaling Technology), total SRC (Cell Signaling Technology), phosphorylated FAK Y576/577 (Cell Signaling Technology), total FAK (Cell Signaling Technology), phosphorylated paxillin Y118 (Cell Signaling Technology), total paxillin (Cell Signaling Technology), phosphorylated EGFR and total EGFR, CD44, and Tubulin (Sigma). […]

[14] = tested on: paxillin; assay: Immunoblotting SRC substrate phosphorylation, NCI-H2228 cells; format: cell-based; settings: Homo sapiens; NCI-H2228 cell line
Description: as §1

[15] = tested on: Karpas-299 cells; assay: Apoptosis/caspase activity assay; format: cell-based; settings: 48 hours treatment
Description: Karpas-299 cells were maintained in RPMI medium supplemented with 10% fetal bovine serum and antibiotics. Five hundred thousand cells per well were seeded in 12-well plate and various concentration of compounds were introduced and incubated for 48 hrs. The cells were then collected and lysed in a lysis buffer (20 mM HEPES, 150 mM NaCl, 10 mM KCl, 5 mM EDTA, 1% NP40) supplemented with Halt protease and phosphatase inhibitors (Thermo Scientific). For caspase assays, approximately 20 μg of cell lysate were incubated with 20 μl of caspase-3 glo reagent (Promega), and the enzyme activity was measured by the release of luminescence after 20 min incubation at 37° C. For western blotting, cell lysate were boiled and analyzed by SDS-PAGE/immunoblotting using anti-caspase-3 (Cell Signaling Technology), anti-PARP (Cell Signaling Technology), or anti-actin (Cell Signaling Technology) antibodies. Antibodies were typically incubated overnight at 4° C. with gentle shake, followed by washes and incubation with the appropriate HRP-conjugated secondary antibodies. Membranes were incubated with chemiluminescent substrate for 5 min at room temperature (SuperSignal West Femto, Thermo Scientific), and the chemiluminescent images were obtained with a C-DiGit Imaging System (LI-COR Biosciences).

[16] = tested on: Karpas 299 tumors; assay: Karpas 299 ALCL subcutaneous xenograft model; format: in vivo, SCID/Beige mice; settings: 50 mg/kg BID orally, seven days
Description: Female athymic nude mice and SCID/Beige mice (5-8 weeks of age) were obtained from Charles River Laboratory and were housed in Innovive IVC disposable cages on HEPA filtered ventilated racks with ad libitum access to rodent chow and water. Five million cells in 100 μL, serum-free medium were implanted subcutaneously in the right flank region of the mouse. […] Tumor size and body weight were measured on designated days. Tumor size was measured with an electronic caliper and tumor volume was calculated as the product of length*width^2*0.5.
The control group of mice were given vehicle only. […] In the case of TMVTreated Last Day of Treatment<TMVTreated First Day of Treatment, tumor regression (REG) was calculated as 100%*(1−TMVTreated Last Day of Treatment/TMVTreated First Day of Treatment).

[17] = tested on: Ba/F3 EML4-ALK G1202R tumors; assay: Ba/F3 EML4-ALK G1202R subcutaneous xenograft model; format: in vivo, SCID/Beige mice; settings: 75 mg/kg BID orally, 17 days
[18] = tested on: Ba/F3 CD74-ROS1 G2032R tumors; assay: Ba/F3 CD74-ROS1 G2032R subcutaneous xenograft model; format: in vivo, SCID/Beige mice; settings: 11 days
Description: Female athymic nude mice and SCID/Beige mice (5-8 weeks of age) were obtained from Charles River Laboratory and were housed in Innovive IVC disposable cages on HEPA filtered ventilated racks with ad libitum access to rodent chow and water. Five million cells in 100 μL serum-free medium were implanted subcutaneously in the right flank region of the mouse. […] All models were implanted with 50% matrigel (Corning, Inc) in the medium. Tumor size and body weight were measured on designated days. Tumor size was measured with an electronic caliper and tumor volume was calculated as the product of length*width^2*0.5.
The control group of mice were given vehicle only.

T1 sequence (P08631 whole entry): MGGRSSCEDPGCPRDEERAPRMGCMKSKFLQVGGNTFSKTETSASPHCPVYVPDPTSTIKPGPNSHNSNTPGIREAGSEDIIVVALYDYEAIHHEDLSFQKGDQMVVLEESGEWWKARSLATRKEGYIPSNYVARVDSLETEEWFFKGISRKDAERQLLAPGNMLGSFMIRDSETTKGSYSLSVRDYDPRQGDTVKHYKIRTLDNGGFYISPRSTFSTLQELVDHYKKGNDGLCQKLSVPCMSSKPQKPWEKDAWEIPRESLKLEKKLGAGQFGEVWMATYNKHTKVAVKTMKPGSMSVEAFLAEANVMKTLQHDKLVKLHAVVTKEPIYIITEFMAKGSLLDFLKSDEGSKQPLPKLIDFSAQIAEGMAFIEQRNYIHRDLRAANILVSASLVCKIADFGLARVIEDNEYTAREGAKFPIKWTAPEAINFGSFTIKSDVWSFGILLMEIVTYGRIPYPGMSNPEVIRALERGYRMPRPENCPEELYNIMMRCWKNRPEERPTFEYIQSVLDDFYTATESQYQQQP

C[C@H]1CNC(=O)c2cnn3ccc(nc23)N[C@H](C)c2cc(F)ccc2O1 [Compound 1, (7S,13R)-11-fluoro-7,13-dimethyl-6,7,13,14-tetrahydro-1,15-ethenopyrazolo[4,3-f][1,4,8,10]benzoxatriazacyclotridecin-4(5H)-one]
IC50 [1]: 16.4 nM | IC50 [2]: 21.8 nM | IC50 [3]: 35.2 nM | IC50 [4]: 47.1 nM | IC50 [5]: 50.2 nM | IC50 [6]: 73 nM | IC50 [7]: 17.8 nM | IC50 [8]: 85 nM | IC50 [9]: 54 nM | IC50 [10]: 98 nM | IC50 [11]: 13.4 nM | IC50 [12]: 0.6 nM | IC50 [13]: 100 nM | IC50 [14]: ~103 nM | apoptosis of Karpas-299 cells (caspase 3/7 glo, PARP western blotting) [15]: increased the number of apoptotic Karpas-299 cells | mice exhibiting tumor regression [16]: 4 of 8 | mice exhibiting tumor regression [17]: 4 of 8 | mice exhibiting tumor regression ([18]; 15 mg/kg/BID orally): 2 of 8 | mice exhibiting complete tumor regression ([18]; 75 mg/kg BID orally): 8 of 8 | tumor regression (REG) ([18]; 75 mg/kg BID orally): 100%
